Laboratory results taken from patent publication US10023566B2, “Dasatinib salts” (EGIS GYOGYSZERGYAR ZRT, priority 2014, dated 2018).
Where a name gives a salt, the structure may show the parent alone.

Assay: Water adsorption, DVS (dynamic vapor sorption) analysis
Format: physicochemical
Conditions: after drying
Excerpt: As it is disclosed in WO2007/035874 paragraph [0096] dasatinib mono HCl includes a cavity or channel, which may be partially or fully occupied by solvent or a mixture of solvent. […] Further salts disclosed in the prior art also contain solvent adsorbed on the surface or in the form of solvate. These forms are nor suitable for pharmaceutical application. […] Therefore we carried out our comparative experiments between dasatinib base monohydrate and the new salts of the present invention.

Row | SMILES | water adsorption property (in words)
1 | Cc1nc(Nc2ncc(C(=O)Nc3c(C)cccc3Cl)s2)cc(N2CCN(CCO)CC2)n1 [dasatinib diHCl salt, N-(2-Chloro-6-methylphenyl)-2-[6-[4-(2-hydroxyethyl)piperazin-1-yl]-2-methylpyrimidin-4-ylamino]-1,3-thiazole-5-carboxamide] | tends to adsorb water
2 | Cc1nc(Nc2ncc(C(=O)Nc3c(C)cccc3Cl)s2)cc(N2CCN(CCO)CC2)n1 [dasatinib mono HCl salt, N-(2-Chloro-6-methylphenyl)-2-[6-[4-(2-hydroxyethyl)piperazin-1-yl]-2-methylpyrimidin-4-ylamino]-1,3-thiazole-5-carboxamide] | changeable, especially after drying
